Test results reported in patent US20240277683A1, “COMPOUNDS” (CTXT PTY LTD, priority 2018, published 2024).

Key:
MOF-KAT8 = MOF-KAT8 (Homo sapiens (Human), UniProt Q9H7Z6); type: biochemical; settings: 1 μM AcCoA, histone H4
TIP60-KAT5 = TIP60-KAT5 (Homo sapiens (Human), UniProt Q92993); assay: Acetyltransferase biochemical assay (AlphaScreen), KAT5; settings: 1 μM AcCoA, histone H4
HBO-KAT7 = HBO-KAT7 (Homo sapiens (Human), UniProt O95251); assay: Acetyltransferase biochemical assay (AlphaScreen), KAT7; settings: 1 μM AcCoA, histone H3.1
MOZ-KAT6A = MOZ-KAT6A (Homo sapiens (Human), UniProt Q92794); assay: Acetyltransferase biochemical assay (AlphaScreen), KAT6A; settings: 1 μM AcCoA, histone H3.1
[1] = system: acetylation of the histone H3K23 marker in U2OS cells; assay: Histone H3 Lysine 23 Acetylation Biomarker Assay; type: cell-based; settings: Homo sapiens, U2OS, 24 h
Procedure: Compounds may be tested for their ability to inhibit acetylation of the histone H3K23 marker in the following assay:
The cell line U2OS was seeded at a density of 9,000 cells per well in 96 well optical quality tissue culture plates in RPMI medium and 10% foetal bovine serum, and allowed to adhere for 24 hours under standard culture conditions (37 degree Celsius, 5% CO2). At the end of this period the medium was aspirated. […] After incubation for 24 hours, the cells were fixed with 3.7% formaldehyde in PBS for 20 minutes at room temperature, washed (5×5 minutes) with phosphate buffer saline containing 0.1% Tween 20 and blocked with Odyssey blocking buffer (LI-COR, Lincoln, NE) containing 0.1% TritonX100. Anti-H3K23ac specific antibody (Abcam ab177275) in Odyssey blocking buffer containing 0.1% Tween 20 was added and incubated for 16 hours at 4 degree Celsius. […] Plates were washed as previously and read on a PerkinElmer Phenix high content imaging platform.

[2] = system: acetylation of the histone H3 Lysine 14 marker in U2OS cells; assay: Histone H3 Lysine 14 Acetylation Biomarker Assay; type: cell-based; settings: Homo sapiens, U2OS, 24 h
Procedure: Compounds may be tested for their ability to inhibit acetylation of the histone H3 Lysine 14 marker in the following assay:
(§1) The cell line U2OS was seeded at a density of 3,000 cells per well in 384-well optical quality tissue culture plates in RPMI medium supplemented with 10% foetal bovine serum and 10 mM Hepes. The cells were allowed to adhere for 24 hours under standard culture conditions (37 degree Celsius, 5% CO2). At the end of this period the cells were washed with serum free medium. […] Plates were washed and read on a PerkinElmer Opera HCS high content imaging platform.

[3] = system: histone H2A.Z Lysine 7 acetylation marker in U2OS cells; assay: H2A.Z Lysine 7 Acetylation Biomarker Assay; type: cell-based; settings: Homo sapiens, U2OS, 24 h
Procedure: Compounds may be tested for their ability to inhibit the histone H2A.Z Lysine 7 acetylation marker in the following assay:
as §1

Sequence of TIP60-KAT5 (Q92993 other isoform, or with tags, fused parts or gaps): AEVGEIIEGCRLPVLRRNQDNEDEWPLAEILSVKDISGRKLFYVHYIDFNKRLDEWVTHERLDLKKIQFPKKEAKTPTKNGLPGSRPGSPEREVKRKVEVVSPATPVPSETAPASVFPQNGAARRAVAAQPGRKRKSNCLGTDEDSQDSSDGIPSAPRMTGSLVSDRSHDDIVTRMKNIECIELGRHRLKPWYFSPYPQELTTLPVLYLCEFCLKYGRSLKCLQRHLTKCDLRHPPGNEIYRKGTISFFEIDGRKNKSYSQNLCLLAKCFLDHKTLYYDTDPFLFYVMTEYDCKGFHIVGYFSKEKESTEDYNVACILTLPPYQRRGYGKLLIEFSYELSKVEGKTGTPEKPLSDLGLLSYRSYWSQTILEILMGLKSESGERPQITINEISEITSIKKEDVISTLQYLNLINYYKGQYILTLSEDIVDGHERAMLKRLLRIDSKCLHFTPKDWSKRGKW
Sequence of HBO-KAT7 (O95251 other isoform, or with tags, fused parts or gaps): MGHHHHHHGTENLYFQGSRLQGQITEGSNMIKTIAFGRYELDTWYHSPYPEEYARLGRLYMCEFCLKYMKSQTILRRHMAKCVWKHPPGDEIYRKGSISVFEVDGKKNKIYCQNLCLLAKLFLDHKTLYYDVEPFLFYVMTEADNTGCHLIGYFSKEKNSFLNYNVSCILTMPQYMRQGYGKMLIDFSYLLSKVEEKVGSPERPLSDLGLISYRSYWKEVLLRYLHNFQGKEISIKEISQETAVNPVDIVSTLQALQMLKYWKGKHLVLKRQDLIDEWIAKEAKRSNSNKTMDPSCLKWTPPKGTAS
Sequence of MOF-KAT8 (Q9H7Z6 177-447): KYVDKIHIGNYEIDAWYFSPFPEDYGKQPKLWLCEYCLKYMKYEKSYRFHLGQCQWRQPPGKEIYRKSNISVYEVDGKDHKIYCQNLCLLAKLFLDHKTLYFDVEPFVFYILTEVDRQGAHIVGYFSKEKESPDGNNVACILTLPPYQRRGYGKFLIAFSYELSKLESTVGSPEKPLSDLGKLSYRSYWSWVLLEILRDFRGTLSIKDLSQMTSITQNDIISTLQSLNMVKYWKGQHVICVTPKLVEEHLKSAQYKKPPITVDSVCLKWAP
Sequence of MOZ-KAT6A (Q92794 other isoform, or with tags, fused parts or gaps): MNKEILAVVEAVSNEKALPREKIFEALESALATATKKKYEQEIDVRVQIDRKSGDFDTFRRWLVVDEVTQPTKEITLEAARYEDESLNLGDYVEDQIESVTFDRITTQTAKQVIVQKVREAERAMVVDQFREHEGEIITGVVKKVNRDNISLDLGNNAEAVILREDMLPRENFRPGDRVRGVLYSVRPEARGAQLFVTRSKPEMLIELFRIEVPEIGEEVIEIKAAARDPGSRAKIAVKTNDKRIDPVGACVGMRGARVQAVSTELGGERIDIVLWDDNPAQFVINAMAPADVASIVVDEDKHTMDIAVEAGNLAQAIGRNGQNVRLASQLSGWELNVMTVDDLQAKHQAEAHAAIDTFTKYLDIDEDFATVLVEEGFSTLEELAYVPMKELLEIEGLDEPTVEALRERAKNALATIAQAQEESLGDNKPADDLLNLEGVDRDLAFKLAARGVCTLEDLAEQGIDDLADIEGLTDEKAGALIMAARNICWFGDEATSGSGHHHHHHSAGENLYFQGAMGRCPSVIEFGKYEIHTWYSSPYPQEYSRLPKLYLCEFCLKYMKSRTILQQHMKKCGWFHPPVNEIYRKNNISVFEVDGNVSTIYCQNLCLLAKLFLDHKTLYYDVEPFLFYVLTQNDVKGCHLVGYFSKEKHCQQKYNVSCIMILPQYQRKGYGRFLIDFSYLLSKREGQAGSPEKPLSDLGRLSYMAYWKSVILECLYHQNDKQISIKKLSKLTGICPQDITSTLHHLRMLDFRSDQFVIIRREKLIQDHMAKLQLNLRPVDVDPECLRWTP

Which results are given for `COc1ccccc1-c1cc(N(C)S(=O)(=O)c2c(OC)cc(-c3ccccc3)cc2OC)no1` [Example 55, 2,6-Dimethoxy-N-[5-(2-methoxyphenyl)isoxazol-3-yl]-N-methyl-4-phenyl-benzenesulfonamide]?
IC50 (MOF-KAT8): > 125 µM; IC50 (TIP60-KAT5): > 125 µM

With `N#Cc1ccc(S(=O)(=O)Nc2cc(-c3ccccc3)on2)cc1` [Example 45, 4-cyano-N-(5-phenylisoxazol-3-yl)benzenesulfonamide] as the compound, how does the IC50 (MOF-KAT8) read?
The IC50 was over 125 µM.

What about the IC50 (TIP60-KAT5) of the same compound?
The IC50 was over 125 µM.

How did the IC50 (MOF-KAT8) turn out when `O=S(=O)(Nc1cc(-c2ccccc2)on1)c1ccccc1` [Example 63, N-(5-phenylisoxazol-3-yl)benzenesulfonamide] was run?
The IC50 was over 125 µM.

For `COC(=O)c1c(-c2ccc(OC)cc2)noc1NS(=O)(=O)c1ccc(C)c(C)c1` [Example 83, methyl 5-((3,4-dimethylphenyl)sulfonamido)-3-(4-methoxyphenyl)isoxazole-4-carboxylate], which IC50 (HBO-KAT7) is on record?
The IC50 was over 125 µM.

Which IC50 (TIP60-KAT5) does the source give for `CCc1ccc(OC)c(S(=O)(=O)Nc2cc(-c3ccncc3)no2)c1` [Example 85, 5-Ethyl-2-methoxy-N-(3-(pyridin-4-yl)isoxazol-5-yl)benzenesulfonamide] here?
Its IC50 is over 125 µM.

For `CCc1ccc(OC)c(S(=O)(=O)Nc2nnc(-c3ccc(OC)c(OC)c3)o2)c1` [Example 125, N-(5-(3,4-Dimethoxyphenyl)-1,3,4-oxadiazol-2-yl)-5-ethyl-2-methoxybenzenesulfonamide], which IC50 (TIP60-KAT5) is on record?
Its IC50 is over 125 µM.

Which IC50 (TIP60-KAT5) does the source give for `COc1cccc(S(=O)(=O)Nc2cc(-c3ccccc3)on2)c1` [Example 36, 3-methoxy-N-(5-phenylisoxazol-3-yl)benzenesulfonamide] here?
Its IC50 is over 125 µM.

With `N#Cc1cccc(S(=O)(=O)Nc2cc(-c3ccccc3)on2)c1` [Example 46, 3-cyano-N-(5-phenylisoxazol-3-yl)benzenesulfonamide] as the compound, how does the IC50 (TIP60-KAT5) read?
The IC50 was over 125 µM.

For `O=S(=O)(Nc1cc(-c2ccccc2)on1)c1cccc(Cl)c1` [Example 35, 3-chloro-N-(5-phenylisoxazol-3-yl)benzenesulfonamide], which IC50 (TIP60-KAT5) is on record?
Its IC50 is over 125 µM.

What about the IC50 (HBO-KAT7) of the same compound?
Its IC50 is over 125 µM.

Which results are given for `O=S(=O)(Nc1cc(-c2ccccc2)on1)c1cccnc1` [Example 30, N-(5-phenylisoxazol-3-yl)pyridine-3-sulfonamide]?
IC50 (TIP60-KAT5): > 125 µM; IC50 (HBO-KAT7): > 125 µM

With `O=S(=O)(Nc1cc(-c2ccccc2)on1)c1ccc(C(F)(F)F)cc1` [Example 47, N-(5-phenylisoxazol-3-yl)-4-(trifluoromethyl)benzenesulfonamide] as the compound, how does the IC50 (TIP60-KAT5) read?
The IC50 was over 125 µM.

What does the source list for `COc1ccccc1-c1nnc(NS(=O)(=O)C2CCOCC2)s1` [Example 127, N-(5-(2-methoxyphenyl)-1,3,4-thiadiazol-2-yl)tetrahydro-2H-pyran-4-sulfonamide]?
IC50 (MOZ-KAT6A): > 125 µM; IC50 (TIP60-KAT5): > 125 µM

With `O=S(=O)(Nc1noc(-c2ccccc2)n1)c1ccccc1F` [Example 68, 2-Fluoro-N-(5-phenyl-1,2,4-oxadiazol-3-yl)benzenesulfonamide] as the compound, how does the IC50 (TIP60-KAT5) read?
Its IC50 is over 125 µM.

What about the IC50 (HBO-KAT7) of the same compound?
The IC50 was over 125 µM.

Which results are given for `COc1cccc(OC)c1S(=O)(=O)Nc1nnc(-c2ccccc2Cn2cccn2)s1` [Example 101, N-(5-(2-((1H-Pyrazol-1-yl)methyl)phenyl)-1,3,4-thiadiazol-2-yl)-2,6-dimethoxybenzenesulfonamide]?
IC50 (MOZ-KAT6A): > 125 µM; IC50 (TIP60-KAT5): > 125 µM

With `COCc1ccc(OC)c(-c2cc(NS(=O)(=O)c3c(OC)cccc3OC)no2)c1` [Example 73, 2,6-Dimethoxy-N-(5-(2-methoxy-5-(methoxymethyl)phenyl)isoxazol-3-yl)benzenesulfonamide] as the compound, how does the IC50 [1] read?
Its IC50 is 0.0171 µM.

And the IC50 [2]?
Its IC50 is 1.29 µM.

What about the IC50 [3] of the same compound?
Its IC50 is 35.2 µM.

Which results are given for `COc1ccc(OC)c(-c2cc(NS(=O)(=O)c3c(OC)cc(-c4ccccc4)cc3OC)no2)c1` [Example 6, N-(5-(2,5-Dimethoxyphenyl)isoxazol-3-yl)-3,5-dimethoxy-[1,1′-biphenyl]-4-sulfonamide]?
IC50 [1]: 0.471 µM; IC50 [2]: 0.526 µM; IC50 [3]: 1.35 µM
